Tests used:
[1] = test system: patients having either mild or very mild cognitive deterioration; assay: Double-blind 16-week clinical trial (CDR, Barthel's, Folstein's tests, Global Clinical Impression); format: in vivo, human; conditions: for Global Clinic Impression: after 16-week treatment, code 1 highly worsened, 4 unchanged, 5 slightly improved, 6 improved, 7 highly improved; for BARTHEL's test, final mark / CDR test, final mark / FOLSTEIN's test, final mark: group average after 16-week treatment, twice a day; for FOLSTEIN's test, final mark: higher mark = favorable; for BARTHEL's test, initial mark / FOLSTEIN's test, initial mark / CDR test, initial mark: group average at baseline, before 16-week treatment; for CDR test, initial mark: twice a day oral
Source text: Seventy nine patients having either mild or very mild cognitive deterioration with the following inclusion criterion:
Antecedents of ischaemic cerebrovascular pathology with symptoms or only with expression in brain computerized tomography (silent infarct). In case of focal or acute multimodal symptoms, at least a three-month period should elapse since symptoms evidence before being included in the tests.
Severity of cognitive deterioration was of the very mild or mild type CDR scale 0,5 and 1 (Clinical Dementia Rating).
Patients were selected from the Neurology area of four different hospitals. In each center a randomization list for parallel groups was established. Tablets in the three groups had the same aspect so as to preserve the double-blind characteristic of the study.
For diagnosis of cognitive deterioration and its association to ischaemic cerebrovascular disorders the criteria proposed in 1992 by the California University, USA, were used, in both their probable and possible forms.
The degree of severity of the cognitive disorder is limited to a borderline, mild condition, according to CDR scale in its points 0.5 and 1. A Hamilton test is carried out in order to detect a depressive condition, which shall contribute to the differential diagnosis of a pseudo dementia.
The Barthel index was used for evaluation of everyday life.
During the initial period a washing in medicine intake was made, in the weeks −4 to 0, the latter being the baseline for those drugs considered to be vasoactive or nootropic.
The observation period lasted 16 weeks, so patients were randomized in three groups which received as double-blind treatment:
Idebenone 45 mg, twice a day.
Nimodipine 30 mg, twice a day.
Idebenone 45 mg+Nimodipine 30 mg, twice a day.
Therapeutic efficacy criteria were based on the results of Folstein's, CDR and Barthel's scales and Global Clinical Impression (GCI). In order to evaluate therapeutic efficacy between the group receiving the combined dosage and the groups receiving the idebenone or nimodipine alone, a statistically significant improvement in one of the following criteria should exist: […]

[2] = oral, multiple doses of 45 or 100 mg, healthy volunteers; cited from earlier work
[3] = in vivo; cited from earlier work

Row | Structure (SMILES) | Global Clinic Impression [1] | BARTHEL's test, final mark [1] | CDR test, final mark [1] | FOLSTEIN's test, final mark [1] | BARTHEL's test, initial mark [1] | FOLSTEIN's test, initial mark [1] | CDR test, initial mark [1] | accumulation after repeated doses [2] | delivery to tissues [3]
1 | COC1=C(OC)C(=O)C(CCCCCCCCCCO)=C(C)C1=O [Group A, 6-(10-hydroxydecil)-2,3-dimethoxy-5-methyl-1,4-benzoquinone] | 5.0 | 87.6 | 0.64 | 24.8 | 87.2 | 22.8 | 0.68 | Accumulation does not occur | widely delivered to different tissues, including the brain
2 | COCCOC(=O)C1=C(C)NC(C)=C(C(=O)OC(C)C)C1c1cccc([N+](=O)[O-])c1 (stereo not shown) [Group B, 1,4-dyhidro-5-(isopropoxycarbonyl)-2,6-dimethyl-4-(3-nitrophenyl)-3-pyridine-carboxylate of 2-methoxyethyl] | 4.9 | 81.1 | 0.63 | 23.9 | 80.7 | 22.5 | 0.67 | – | –
